The target of assay [1] is Receptor tyrosine-protein kinase erbB-2 (Homo sapiens, UniProt P04626).
Description: Inhibition of human recombinant His6x-tagged HER2 autophosphorylation expressed in Sf9 cells after 1 hr by ELISA
The next assay concerns MCF7. The assay is described as follows: Antiproliferative activity against human MCF7 cells after 48 hrs by MTT assay. Particulars: MCF7, 48 h.
Assay [2] concerns the target Epidermal growth factor receptor (Homo sapiens, UniProt P00533).
Description: Inhibition of human recombinant His6x-tagged EGFR autophosphorylation expressed in Sf9 cells after 1 hr by ELISA

The values that follow come from ChEMBL document CHEMBL1177684, “Synthesis, molecular modeling, and biological evaluation of cinnamic acid metronidazole ester derivatives as novel anticancer agents” (Bioorg Med Chem, 2010).

Sequence of Epidermal growth factor receptor (P00533 whole entry): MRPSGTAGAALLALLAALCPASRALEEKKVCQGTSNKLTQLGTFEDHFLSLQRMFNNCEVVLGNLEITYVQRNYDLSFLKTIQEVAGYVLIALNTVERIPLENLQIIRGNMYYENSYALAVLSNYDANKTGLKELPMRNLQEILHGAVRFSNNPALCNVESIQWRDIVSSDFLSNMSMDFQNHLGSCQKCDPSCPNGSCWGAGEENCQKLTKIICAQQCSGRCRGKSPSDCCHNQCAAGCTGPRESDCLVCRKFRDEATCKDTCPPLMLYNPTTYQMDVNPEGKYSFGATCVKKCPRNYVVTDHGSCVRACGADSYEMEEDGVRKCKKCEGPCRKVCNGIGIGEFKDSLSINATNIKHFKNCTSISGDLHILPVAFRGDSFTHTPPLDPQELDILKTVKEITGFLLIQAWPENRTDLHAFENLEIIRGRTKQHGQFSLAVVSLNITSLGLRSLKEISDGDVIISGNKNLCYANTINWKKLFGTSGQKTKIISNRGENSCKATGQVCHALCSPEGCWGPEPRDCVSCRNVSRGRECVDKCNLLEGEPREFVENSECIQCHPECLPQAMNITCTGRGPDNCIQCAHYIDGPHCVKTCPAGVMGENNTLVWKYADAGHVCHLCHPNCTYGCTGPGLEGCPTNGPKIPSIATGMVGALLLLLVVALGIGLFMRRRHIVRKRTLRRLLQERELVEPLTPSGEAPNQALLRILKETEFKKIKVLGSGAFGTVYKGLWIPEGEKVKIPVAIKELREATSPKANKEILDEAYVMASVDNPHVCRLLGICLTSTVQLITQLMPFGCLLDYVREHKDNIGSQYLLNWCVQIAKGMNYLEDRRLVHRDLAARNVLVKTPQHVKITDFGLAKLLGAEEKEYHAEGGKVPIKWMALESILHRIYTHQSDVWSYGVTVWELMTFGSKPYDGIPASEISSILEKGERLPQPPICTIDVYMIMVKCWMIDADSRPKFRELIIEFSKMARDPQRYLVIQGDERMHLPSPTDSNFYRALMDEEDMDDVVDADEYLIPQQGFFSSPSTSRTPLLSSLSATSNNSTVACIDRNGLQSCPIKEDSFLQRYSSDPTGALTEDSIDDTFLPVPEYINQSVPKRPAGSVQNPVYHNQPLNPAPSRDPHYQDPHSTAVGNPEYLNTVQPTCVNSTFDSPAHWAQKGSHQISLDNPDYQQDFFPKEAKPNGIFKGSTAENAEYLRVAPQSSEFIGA
Sequence of Receptor tyrosine-protein kinase erbB-2 (P04626 whole entry): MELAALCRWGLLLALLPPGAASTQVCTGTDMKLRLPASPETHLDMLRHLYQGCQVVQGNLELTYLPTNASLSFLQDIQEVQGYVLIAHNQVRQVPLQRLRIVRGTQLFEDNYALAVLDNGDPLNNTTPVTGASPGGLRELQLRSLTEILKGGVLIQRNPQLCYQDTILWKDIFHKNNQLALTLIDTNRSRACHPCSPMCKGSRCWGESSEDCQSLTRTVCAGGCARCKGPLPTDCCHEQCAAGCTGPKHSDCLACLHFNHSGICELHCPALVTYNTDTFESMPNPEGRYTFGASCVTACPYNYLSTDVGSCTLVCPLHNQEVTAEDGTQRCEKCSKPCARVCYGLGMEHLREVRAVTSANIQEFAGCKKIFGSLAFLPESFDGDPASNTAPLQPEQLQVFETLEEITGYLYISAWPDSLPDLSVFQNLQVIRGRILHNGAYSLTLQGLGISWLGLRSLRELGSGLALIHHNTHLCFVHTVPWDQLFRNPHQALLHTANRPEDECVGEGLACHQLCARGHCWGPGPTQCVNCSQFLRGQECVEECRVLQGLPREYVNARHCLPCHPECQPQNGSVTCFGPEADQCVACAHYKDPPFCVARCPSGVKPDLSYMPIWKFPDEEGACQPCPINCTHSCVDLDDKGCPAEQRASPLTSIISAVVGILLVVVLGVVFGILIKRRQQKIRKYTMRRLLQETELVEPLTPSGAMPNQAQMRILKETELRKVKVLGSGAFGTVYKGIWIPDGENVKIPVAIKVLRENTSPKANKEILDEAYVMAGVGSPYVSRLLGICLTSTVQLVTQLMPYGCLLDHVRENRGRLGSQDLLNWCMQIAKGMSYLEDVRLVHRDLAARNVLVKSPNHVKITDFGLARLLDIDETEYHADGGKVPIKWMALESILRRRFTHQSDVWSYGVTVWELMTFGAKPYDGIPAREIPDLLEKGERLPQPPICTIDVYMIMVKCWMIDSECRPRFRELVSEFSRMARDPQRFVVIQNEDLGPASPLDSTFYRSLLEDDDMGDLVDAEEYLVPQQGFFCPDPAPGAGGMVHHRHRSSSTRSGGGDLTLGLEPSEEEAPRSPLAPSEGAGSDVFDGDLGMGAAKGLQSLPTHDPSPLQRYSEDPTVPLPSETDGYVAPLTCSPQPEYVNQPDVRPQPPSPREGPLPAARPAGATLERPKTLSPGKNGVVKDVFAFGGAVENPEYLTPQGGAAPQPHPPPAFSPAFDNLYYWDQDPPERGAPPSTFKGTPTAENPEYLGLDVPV

Take `Cc1ncc([N+](=O)[O-])n1CCOC(=O)/C=C/c1cccc2ccccc12`: the results for the IC50 (in assay [1]; with MCF7; in assay [2]) were 5.03 µM, 3.4 µM and 3.88 µM, respectively.
For `Cc1ncc([N+](=O)[O-])n1CCOC(=O)/C=C/c1ccc2ccccc2c1`, the IC50 in assay [1] is 9.24 µM; with MCF7 it was 4.1 µM; in assay [2] it was 5.76 µM.
On to `COc1ccccc1/C=C/C(=O)OCCn1c([N+](=O)[O-])cnc1C`, for which the values for the IC50 (in assay [1]; in the assay with MCF7; in assay [2]) were more than 50 µM, 20 µM and 32 µM, respectively.
Regarding `Cc1ncc([N+](=O)[O-])n1CCOC(=O)/C=C/c1ccc(F)cc1`, the IC50 came to 5.84 µM in assay [1], 3.76 µM in the assay with MCF7 and 4.12 µM in assay [2].
The like results for `Cc1ncc([N+](=O)[O-])n1CCOC(=O)/C=C/c1ccc(Cl)cc1` were, in that order, 4.77 µM, 3.05 µM and 3.62 µM.
Take `Cc1ncc([N+](=O)[O-])n1CCOC(=O)/C=C/c1ccccc1F`: the IC50 is 41.3 µM in assay [1], 15 µM in the assay with MCF7 and 26.7 µM in assay [2].
In the case of `Cc1ncc([N+](=O)[O-])n1CCOC(=O)/C=C/c1ccccc1Cl`, the IC50 is 36.5 µM in assay [1], 18 µM in the assay with MCF7 and 20.8 µM in assay [2].
For `Cc1ncc([N+](=O)[O-])n1CCOC(=O)/C=C/c1ccccc1Br`, the IC50 in assay [1] came to 44.8 µM; in the assay with MCF7, 16 µM; in assay [2], 24.3 µM.
Turning to `Cc1ncc([N+](=O)[O-])n1CCOC(=O)/C=C/c1cccc([N+](=O)[O-])c1`, the IC50 in assay [1] came to 19.3 µM; in the assay on MCF7 it was 5.68 µM; in assay [2] it was 14.5 µM.
As for `Cc1ncc([N+](=O)[O-])n1CCOC(=O)/C=C/c1cccc(F)c1`, the half-inhibitory concentration (IC50) in assay [1] was 16.8 µM; with MCF7, 5.88 µM; in assay [2], 12.4 µM.
Take `COc1cccc(/C=C/C(=O)OCCn2c([N+](=O)[O-])cnc2C)c1`: the values for the IC50 (in assay [1]; with MCF7; in assay [2]) were 18.8 µM, 5.75 µM and 13.9 µM, respectively.
For the compound `Cc1ncc([N+](=O)[O-])n1CCOC(=O)/C=C/c1ccc(Br)cc1`, the figures for the IC50 (in assay [1]; in the assay on MCF7; in assay [2]) were 4.65 µM, 2.45 µM and 3.24 µM, respectively.
In the case of `Cc1ncc([N+](=O)[O-])n1CCOC(=O)/C=C/c1ccccc1`, the IC50 in assay [1] is 10.8 µM; in the assay on MCF7 it was 4.41 µM; in assay [2], 7.83 µM.
The like results for `Cc1ccc(/C=C/C(=O)OCCn2c([N+](=O)[O-])cnc2C)cc1` were, in that order, 9.65 µM, 4.28 µM and 8.11 µM.
On to `COc1ccc(/C=C/C(=O)OCCn2c([N+](=O)[O-])cnc2C)cc1`, for which the results for the IC50 (in assay [1]; in the assay with MCF7; in assay [2]) were 14.3 µM, 5.49 µM and 10.8 µM, respectively.
For `Cc1ncc([N+](=O)[O-])n1CCOC(=O)/C=C/c1ccc(C(C)C)cc1` the same measures were 9.97 µM, 4.96 µM and 6.82 µM.
On to `Cc1ncc([N+](=O)[O-])n1CCOC(=O)/C=C/c1ccc(-c2ccccc2)cc1`, for which the results for the IC50 (in assay [1]; in the assay on MCF7; in assay [2]) were 2.15 µM, 0.36 µM and 0.62 µM, respectively.
In turn, `Cc1ncc([N+](=O)[O-])n1CCOC(=O)/C=C/c1ccc(OCc2ccccc2)cc1` displayed an IC50 in assay [1] of 3.46 µM. This lies in the single-digit micromolar range.
As for `Cc1ncc([N+](=O)[O-])n1CCOC(=O)/C=C/c1ccccc1[N+](=O)[O-]`, the IC50 in assay [1] came to 40 µM; in the assay with MCF7, 17 µM; in assay [2], 25 µM.

As a reminder, the IC50 is the concentration at which inhibition is half-maximal.
